Laboratory results: patent US20090111836A1, “Angular Pyranocoumarins, Process for Preparation and Uses Thereof” (CITY UNIVERSITY OF HONG KONG, priority 2007, published 2009)
Entries after “also recorded” stand apart in the source; their conditions may differ.

What was measured:
Assay type in all cases: cell-based, human
KB V1 cells = assay: SRB growth inhibition assay, KB V1; conditions: IC50 KB V1 / IC50 KB-3-1
HepG2-DR cells [1] = assay: SRB growth inhibition assay, HepG2-DR; conditions: IC50 HepG2-DR / IC50 HepG2
Description: K562, K562-DR, HepG2, HepG2-DR were cultured in RPMI-1640 medium containing 10% fetal bovine serum and 100 U/mL, antibiotics. […] Drug test: […] New calorimetric cytotoxicity assay for anticancer-drug screening. […] Mosmann T. Rapid colorimetric assay for cellular growth and survival: application to proliferation and cytotoxicity assays. […] Gerlier D, Thomasset N. […] Each growth inhibition experiment must be repeated three times and results are expressed as mean±standard deviation (SD). Solvents and media were included as blank control. In SRB assay, cells are inoculated at 5000 cells/well in a 96-well microplate and incubated overnight to let cells adhere. Drug treatment lasts for 72 hours and cells are fixed for 1 hour at 4° C. with 50 μl ice-cold 15% trichloroacetic acid and washed with triple-distilled water 5 times. […] The protein-bound dye is dissolved in 100 μl per well of 10 mM Tris base (pH 10.5). The color intensity of SRB, which positively correlate to cell number in preliminary experiments, is estimated at OD 515 nm.

K562-DR cells = assay: Reversal of multidrug resistance (fold decrease of anticancer drug IC50), K562-DR; conditions: 4 μM test compound
Description: Cells and cell culture: cell lines used in the experiments are human hepatoma cell line (HepG2), human leukemia cell line (K562), human epidermoid carcinoma cell line (KB-3-1) and their multidrug resistant sublines HepG2-DR, K562-DR. and KB V1. The culture conditions for all cells are following: at 37° C. and 5% CO2), KB-3-1 and KBV1 were cultured in MEM medium containing 10% fetal bovine serum and 100 U/mL antibiotics; K562, K562-DR, HepG2, HepG2-DR were cultured in RPMI-1640 medium containing 10% fetal bovine serum and 100 U/mL, antibiotics. For maintaining the phenotypic characteristics of multidrug resistance, 1.2 μM and 0.1 μM doxorubicin were respectively added into the mediums of HepG2-DR and K562-DR; 200 ng/mL vinblastine was added into the medium of KBV1. Drug resistant cells were grown in drug free medium for at least 7 days before test.
Each growth inhibition experiment must be repeated three times and results are expressed as mean±standard deviation (SD). Solvents and media were included as blank control.
In MTT assay, cells are inoculated at 5000 cells/well and are incubated overnight. Drug treatment lasts for 68 h. MTT (5 mg/ml in PBS) is added to each well (1:10 dilution). After incubation for 4 hour at 37° C., 5% CO2, 100 μl of stop solution (10% SDS-50% isobutanol-0.01N HCl) is added to each well to stop the reaction. Viable cell number is estimated by correlating to OD at 570 nm.
1. Materials and methods: the same with I.
To evaluate the multidrug resistance reversing ability of (±)-Praeruptorin A derivatives, IC50 values of anticancer drugs in the presence and absence of cis-DMDCK, cis-DMDBK, trans-DMDCK, or trans-DMDBK at certain concentration were determined in HepG2-DR, K562-DR and KB V1 cells. The fold decrease of IC50 value of an anticancer drug in certain cell line achieved by a test compound is calculated (fold decrease=IC50 of an anti-tumor drug alone/IC50 of the anti-tumor drug in combination with the test compound) and is used for evaluating the ability of the test compound to reduce drug resistance. The larger the fold decrease value is, the stronger its ability to reverse drug resistance is. The results were average values of three repetitive tests. Verapamil (P-glycoprotein modulator) is the positive control.

HepG2-DR cells [2] = assay: Cell cycle distribution by flow cytometry (doxorubicin-induced G2/M arrest), HepG2-DR; conditions: HepG2-DR; for Cell cycle distribution, G0/G1 / Cell cycle distribution, G2/M / Cell cycle distribution, S / Cell cycle distribution, SubG1: 48 h; for Concentration of test compound that reduced the effective doxorubicin concentration (G2/M arrest) from 50 to 1 μM: combination with doxorubicin
Description: 1.2 Instruments: FACSCAN flow cytometry (Becton Dickinson Immunocytometry Systems, San Jose, Calif.), the obtained data were analyzed using the software of Macintosh CellQuest.
1.3 Cell lines: HepG2, HepG2-DR.
1.4 Drug treatment: HepG2 and HepG2-DR cells were respectively treated with each of cis-DMDCK, cis-DMDBK, trans-DMDCK, trans-DMDBK and doxorubicin for 48 hours, or treated respectively with the combination of doxorubicin and one of cis-DMDCK, cis-DMDBK, trans-DMDCK, trans-DMDBK for 48 hours.
1.5 Treatment and detection of sample cells: after washed twice by ice-cold PBS, the cells were fixed with 70% ethanol at −20° C. overnight. The fixed cells were washed by PBS once and resuspended in 1 mL of PBS containing 100 μg/mL RNAase A and incubated at 37° C. for 30 minutes. Finally, propidium iodide solution (final concentration is 40 μg/mL,) was added to bind with DNA and incubated at room temperature for 5-10 minutes. Cells were analyzed by FACSCAN flow cytometry immediately.

P-gp [3] = assay: Immunoblotting analysis of P-gp expression, KB V1; conditions: KB V1, 4 μM, 72 hours
Description: (§1) Immunoblotting analysis of P-gp expression: cells were treated with 4 μM of cis-DMDCK, 4 μM of cis-DMDBK, 4 μM of trans-DMDCK, or 4 μM of trans-DMDBK for 72 hours. Treated cells were collected and mixed well in ice-cold lysis buffer (50 mM Tris pH7.4, 100 mM NaCl, 2 mM EDTA, 1% sodium deoxycholate, 0.1% SDS, 1% triton X-100, 2 mM PMSF, 1% aprotinin) for 30 minutes and then centrifuged to get the total protein. Protein concentration was determined using Bradford assay. In this experiment, 50 μg total protein was separated by 8% SDS-PAGE and electro-transferred to nitrocellulose membranes. The membrane was blocked by 5% skim milk/0.1% Tween-20/TBS (10 mM Tris pH7.5, 100 mM NaCl), and then incubated with anti-P-pg antibody for 1 hour, followed by horseradish-peroxidase-conjugated secondary antibody for another 1 hour. Protein bands were detected by the ECL method.

P-gp [4] = assay: Immunoblotting analysis of P-gp expression, K562-DR; conditions: 4 μM, 72 hours
Description: as §1

[5] = 1 μM doxorubicin + 0.5 μM test compound
[6] = 1 μM doxorubicin + 1 μM test compound
[7] = 1 μM doxorubicin + 2 μM test compound
[8] = 1 μM doxorubicin + 4 μM test compound

Reversing parameter: fold decrease of IC50, verapamil (K562-DR cells) [fold]	Reversing parameter: fold decrease of IC50 of Doxorubicin (K562-DR cells) [fold]	Reversing parameter: fold decrease of IC50 of Puromycin (K562-DR cells) [fold]	Reversing parameter: fold decrease of IC50 of Vinblastine (K562-DR cells) [fold]	SMILES	Resistant ratio (KB V1 cells)	Resistant ratio (HepG2-DR cells [1])	Cell cycle distribution, G0/G1 (HepG2-DR cells [2]; [6]) [%]	Cell cycle distribution, G2/M (HepG2-DR cells [2]; [6]) [%]	Cell cycle distribution, S (HepG2-DR cells [2]; [6]) [%]	Cell cycle distribution, SubG1 (HepG2-DR cells [2]; [6]) [%]	Cell cycle distribution, G0/G1 (HepG2-DR cells [2]; [7]) [%]	Cell cycle distribution, G2/M (HepG2-DR cells [2]; [7]) [%]	Cell cycle distribution, S (HepG2-DR cells [2]; [7]) [%]	Cell cycle distribution, SubG1 (HepG2-DR cells [2]; [7]) [%]	Effect on cell cycle by itself (HepG2-DR cells [2]; 4 μM alone)	Cell cycle distribution, G0/G1 (HepG2-DR cells [2]; 4 μM alone) [%]	Cell cycle distribution, G2/M (HepG2-DR cells [2]; 4 μM alone) [%]	Cell cycle distribution, S (HepG2-DR cells [2]; 4 μM alone) [%]	Cell cycle distribution, SubG1 (HepG2-DR cells [2]; 4 μM alone) [%]	Concentration of test compound that reduced the effective doxorubicin concentration (G2/M arrest) from 50 to 1 μM (HepG2-DR cells [2]) [µM]	further results
105.8 ± 51.1	18.9 ± 7.9	21.8 ± 3.1	75.6 ± 21.3	COc1ccc(C(=O)O[C@@H]2c3c(ccc4ccc(=O)oc34)OC(C)(C)[C@@H]2OC(=O)c2ccc(OC)c(OC)c2)cc1OC (racemic) [cis-DMDBK, (±)-3′-O,4′-O-bis(3,4-dimethoxybenzoyl)-cis-khellactone]	0.46	1.19	13.52 ± 1.36	73.03 ± 1.89	5.85 ± 3.09	4.08 ± 0.81	3.74 ± 0.76	79.01 ± 6.01	6.86 ± 2.57	7.13 ± 6.57	no effect	52.36 ± 0.98	34.36 ± 0.42	7.66 ± 3.22	2.27 ± 0.49	2	Cell cycle distribution, G0/G1 (HepG2-DR cells [2]; [5]): 35.82 ± 2.26%; Cell cycle distribution, G2/M (HepG2-DR cells [2]; [5]): 52.79 ± 5.64%; Cell cycle distribution, S (HepG2-DR cells [2]; [5]): 6.44 ± 0.77%; Cell cycle distribution, SubG1 (HepG2-DR cells [2]; [5]): 2.92 ± 1.09%; Change in P-gp (MDR1) expression level (P-gp [3]): no detectable alteration; also recorded: not observed; Change in P-gp (MDR1) expression level (P-gp [4]): no detectable alteration; also recorded: not observed
169.9 ± 39.4	28.8 ± 8.9	38.8 ± 8.9	138.7 ± 39.6	COc1ccc(/C=C/C(=O)O[C@@H]2c3c(ccc4ccc(=O)oc34)OC(C)(C)[C@@H]2OC(=O)/C=C/c2ccc(OC)c(OC)c2)cc1OC (racemic) [cis-DMDCK, (±)-3′-O,4′-O-bis(3,4-dimethoxycinnamoyl)-cis-khellactone]	0.52	1.29	4.39 ± 1.50	81.42 ± 6.02	5.36 ± 3.13	5.59 ± 4.35	4.51 ± 0.45	77.12 ± 3.36	8.87 ± 4.04	6.40 ± 5.54	no effect	52.10 ± 0.61	33.20 ± 2.05	8.38 ± 4.24	2.25 ± 0.51	1	Cell cycle distribution, G0/G1 (HepG2-DR cells [2]; [5]): 8.46 ± 1.63%; Cell cycle distribution, G2/M (HepG2-DR cells [2]; [5]): 79.79 ± 4.56%; Cell cycle distribution, S (HepG2-DR cells [2]; [5]): 6.52 ± 1.76%; Cell cycle distribution, SubG1 (HepG2-DR cells [2]; [5]): 4.35 ± 0.59%; Change in P-gp (MDR1) expression level (P-gp [3]): no detectable alteration; also recorded: not observed; Change in P-gp (MDR1) expression level (P-gp [4]): no detectable alteration; also recorded: not observed
9.8 ± 2.1	7.0 ± 2.2	6.7 ± 0.4	11.0 ± 0.6	COc1ccc(C(=O)O[C@@H]2[C@@H](OC(=O)c3ccc(OC)c(OC)c3)c3c(ccc4ccc(=O)oc34)OC2(C)C)cc1OC (racemic) [trans-DMDBK, (±)-3′-O,4′-O-bis(3,4-dimethoxybenzoyl)-trans-khellactone]	0.53	1.31	34.60 ± 2.58	49.53 ± 0.69	7.61 ± 3.69	3.31 ± 0.89	17.56 ± 2.20	67.89 ± 1.19	7.03 ± 2.34	5.30 ± 2.52	no effect	49.57 ± 0.15	34.41 ± 3.70	6.17 ± 1.55	1.33 ± 0.24	4	Cell cycle distribution, G0/G1 (HepG2-DR cells [2]; [8]): 5.37 ± 1.06%; Cell cycle distribution, G2/M (HepG2-DR cells [2]; [8]): 81.56 ± 2.62%; Cell cycle distribution, S (HepG2-DR cells [2]; [8]): 4.71 ± 3.62%; Cell cycle distribution, SubG1 (HepG2-DR cells [2]; [8]): 5.11 ± 2.84%; Change in P-gp (MDR1) expression level (P-gp [3]): no detectable alteration; also recorded: not observed; Change in P-gp (MDR1) expression level (P-gp [4]): no detectable alteration; also recorded: not observed
